Measurements published in publication PMC11109052, “Metabolism characterization and toxicity of N-hydap, a marine candidate drug for lung cancer therapy by LC–MS method” (Natural Products and Bioprospecting, 2024).

How the values were obtained:
[1] = Metabolic stability in HLMs, UGT reaction (glucuronidation); assay type: in vitro ADME, human; conditions: human, human liver microsomes (UGT reaction), pH 7.4, HLMs, UGT reaction
Method: (§1) Various microsomes including HLMs, HKMs, HIMs, RLMs, RKMs, MLMs and MKMs were involved in CYP and UGT reactions of N-hydap. A typical CYP incubation mixture included 0.5 mg/mL microsomes protein, 3.3 mM glucose-6-phosphate, 3.3 mM MgCl2, 0.4 U/mL glucose-6-phosphate dehydrogenase, and N-hydap (1, 2.5, or 10 μM) in the 50 mM potassium phosphate buffer (KPI, pH 7.4). The incubation mixture was preincubated at 37 °C for 5 min, and the reaction was started by adding NADP to form a NADPH-regenerating system. Simultaneously, the classic UGT reaction system consisted of 50 mM KPI, 5 mM MgCl2, 0.5 mg/mL microsomes, 0.125 mg/mL alamethicin, and 5.25 mg/mL saccharolactone. The reaction was initiated after supplying UDPGA. The CYP and UGT mixtures were incubated at 37 °C in a shaking water bath (80 rpm) for 1.5 h to enhance metabolite formation. To terminate the reaction, an ice-cold solution of Tes (50 ng/mL, dissolved in methanol and used as an internal standard) was added to half of the mixture volume. The mixture was vortexed for 30 s and then centrifuged at 13,000 rpm for 15 min to eliminate any precipitated protein. The resulting supernatant was transferred to autosampler vials, and 5 μL was injected into the LC–MS system. All reactions were conducted in triplicate.
(§2) The identical concentration of HLMs was utilized for both the CYP reaction and UGT reaction. At predetermined time intervals of 0, 15, 30, and 60 min, 100 µL samples were taken from the reaction volumes. To halt the reaction, 50 µL of 50 ng/mL Tes was added. Samples were analyzed using LC–MS to compare the remaining level of N-hydap between the CYP reaction and UGT reaction. T1/2 and CLint (in vivo) (mL/min/kg) were calculated as reported previously:
(§3) T1/2=0.693/k, where k represents the slope of the line derived from plotting the natural logarithm of the percentage (Ln %) of N-hydap remaining in the reaction mixture against the incubation time (minutes).
(§4) CLintinvivo=0.693/invitroT1/2×mLincubation/mgmicrosomes×45mgmicrosomes/gliver×20gliver/kgbodyweight.

[2] = tested on: HLMs (UGT reaction); assay: as above; assay type: in vitro ADME, human; conditions: for percentage of N-hydap remaining: HLMs, glucuronidation reaction
Method: as §1, §2, §3, §4

[3] = molecular target: T1, recombinant human CYP enzymes (CYP1A2, CYP2B6, CYP2C9, CYP2C19, CYP2D6, CYP3A4, CYP4A11 and CYP4F2) (Homo sapiens, UniProt P05177); assay: Incubation with 8 recombinant human CYP enzymes; assay type: in vitro ADME; conditions: Table 4 experimental column
T1 construct: purchased Cypex (Scotland, UK)
T1 sequence (P05177 whole entry): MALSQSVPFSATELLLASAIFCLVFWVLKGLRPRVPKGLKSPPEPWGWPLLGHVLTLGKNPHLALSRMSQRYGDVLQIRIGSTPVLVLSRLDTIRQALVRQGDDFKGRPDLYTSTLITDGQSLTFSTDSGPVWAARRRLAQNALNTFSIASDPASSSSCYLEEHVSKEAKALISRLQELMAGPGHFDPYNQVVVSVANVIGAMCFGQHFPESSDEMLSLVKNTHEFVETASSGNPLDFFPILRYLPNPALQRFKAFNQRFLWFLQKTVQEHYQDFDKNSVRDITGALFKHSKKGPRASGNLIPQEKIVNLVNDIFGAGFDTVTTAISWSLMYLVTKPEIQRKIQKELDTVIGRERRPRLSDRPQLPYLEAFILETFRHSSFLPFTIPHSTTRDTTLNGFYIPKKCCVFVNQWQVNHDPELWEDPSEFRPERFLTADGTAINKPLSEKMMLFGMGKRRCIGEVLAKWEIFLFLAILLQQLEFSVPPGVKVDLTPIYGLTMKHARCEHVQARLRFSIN
Method: (§5) Incubation of N-hydap (2.5 μM) with eight recombinant human CYP enzymes (CYP1A2, CYP2B6, CYP2C9, CYP2C19, CYP2D6, CYP3A4, CYP4A11 and CYP4F2) at three enzyme concentrations (2, 4, and 20 μg/mL) was conducted following the same procedure as described above for microsomes. Subsequently, incubation with N-hydap (1, 2.5, and 6 μM) and twelve recombinant human UGT isoforms (UGT1A1, UGT1A3, UGT1A4, UGT1A6, UGT1A7, UGT1A8, UGT1A9, UGT1A10, UGT2B4, UGT2B7, UGT2B15 and UGT2B17) was performed, with the enzyme concentration used at 2 μg/mL. All reactions were carried out in triplicate.

[4] = tested on: recombinant human CYP enzymes (CYP1A2, CYP2B6, CYP2C9, CYP2C19, CYP2D6, CYP3A4, CYP4A11 and CYP4F2); assay: Incubation with 8 recombinant human CYP enzymes; assay type: in vitro ADME; conditions: N-hydap 2.5 μM; enzyme concentrations of 2 and 4 μg/mL; all recombinant CYPs
Method: as §5

[5] = tested on: CYP3A4; assay: Western blot protein level after 7 days gavage: CYP3A4; assay type: in vivo; conditions: mice, p.o. 7 days; liver and kidney (either tissue)
Method: (§6) Mice were randomly divided into four groups, with eight animals in each group. The mice received oral pretreatment with N-hydap for 7 days at doses of 2, 5, and 10 mg/kg/day, which were considered as the low dose, medium dose, and high dose, respectively. Correspondingly, the control group received PBS. On the 8th day, the liver and kidneys were removed, and organs from eight mice per group were combined to prepare MLMs and MKMs using the detailed procedures above. Subsequently, we determined the activity of CYP and UGT enzymes by specific substrate metabolized with MLMs (0.5 mg/mL) and MKMs (0.2 mg/mL) in vitro. […] In the ex vivo experiments, the activity of enzymes was measured by quantifying the production of various metabolites (nM/mg protein/min). […] The measurements were performed using multiple reaction monitoring (MRM) transitions, which are specific mass spectrometry transitions used for quantification. […]
(§7) After 7 days of N-hydap gavage, the liver and kidney tissues were lysed using RIPA buffer supplemented with a 1% protease inhibitor cocktail. […] Western blot signals were detected using an ECL chemiluminescence detection agent. The relative intensity of each protein band was scanned and quantified using Image J software.

[6] = tested on: Ugt1a1; assay: Western blot protein level after 7 days gavage: UGT1A1; assay type: in vivo; conditions: mice, p.o. 7 days; liver
Method: as §6, §7

CC1CCC2C(C=CC(C)C2C(=O)c2c(O)c(C3(O)CCC(O)C4OC43)cn(O)c2=O)C1 (centres unmarked) [N-hydap, N-Hydroxyapiosporamide]
half-life [1]: 2.16 h | CLint scaled ([1]; extrapolated from in vitro T1/2, read-out: CLint (in vivo)): 48.2 mL/min/kg | percentage of N-hydap remaining ([2]; 15 min): 47.84% | percentage of N-hydap remaining ([2]; 30 min): 40.44% | UGT catelyzed, experimental results ([2]; Table 4 experimental column): Yes | Phase II metabolism, experimental results ([2]; Table 4 experimental column, microsomes): Glucuronidation | eliminated by UGTs ([2]; various microsomes, after 1 h): ~70% | CYP1A2 substrate, experimental results [3]: Yes | prototype elimination rate [4]: less than 25% | protein levels of CYP3A4 [5]: no significant changes | protein levels of UGT1A1 [6]: slightly down-regulated
